Reference: the supplement of paper PMC11061612

How the values were obtained:
[1] = compound: C1CC(C1)(C(=O)[O-])C(=O)[O-].N.N.[Pt+2] [Carboplatin]; details: max 10 µM
Procedure, shortened: (§1)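 Plates with 1536 wells received cancer cell lines in 7.5 μl of DMEM/F12 or RPMI containing 10% FBS. After 24 hours at 37°C and 5% CO2, cells were dosed for 72 hours with final DMSO typically 0.2%, and viability was read by CellTiter-Glo 2.0 luminescence scaled between blank-well and DMSO-well means. The single-agent IC50 was taken from a logistic fit of the dose responses made with a non-linear mixed effects model, that logistic curve having two parameters.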

[2] = compound: C1CN(CCC1(C(=O)N[C@@H](CCO)C2=CC=C(C=C2)Cl)N)C3=NC=NC4=C3C=CN4 [AZD5363]; details: max 10 µM
Procedure, shortened: as §1

[3] = compound: C=CCn1c(=O)c2cnc(Nc3ccc(N4CCN(C)CC4)cc3)nc2n1-c1cccc(C(C)(C)O)n1 [AZD1775]; details: max 3 µM
Procedure, shortened: as §1

[4] = compound: CC(=O)Nc1cccc(-n2c(=O)n(C3CC3)c(=O)c3c(Nc4ccc(I)cc4F)n(C)c(=O)c(C)c32)c1 [Trametinib]; details: max 1 µM
Procedure, shortened: as §1

[5] = compound: CC(=O)O[C@H]1C(=O)[C@@]2(C)[C@H]([C@H](OC(=O)c3ccccc3)[C@]3(O)C[C@H](OC(=O)[C@H](O)[C@@H](NC(=O)c4ccccc4)c4ccccc4)C(C)=C1C3(C)C)[C@]1(OC(C)=O)CO[C@@H]1C[C@@H]2O [Paclitaxel]; details: max 3 µM
Procedure, shortened: as §1

[6] = compound: CC(=O)c1c(C)c2cnc(Nc3ccc(N4CCNCC4)cn3)nc2n(C2CCCC2)c1=O [Palbociclib]; details: max 10 µM
Procedure, shortened: as §1

[7] = compound: CC(C)n1c(=O)n(C)c2cnc3cc(F)c(-c4ccc(OCCCN5CCCCC5)nc4)cc3c21 [AZD1390]; details: max 0.3 µM
Procedure, shortened: as §1

[8] = compound: CC1(C)CCC(CN2CCN(c3ccc(C(=O)NS(=O)(=O)c4ccc(NCC5CCOCC5)c([N+](=O)[O-])c4)c(Oc4cnc5[nH]ccc5c4)c3)CC2)=C(c2ccc(Cl)cc2)C1 [Venetoclax]; details: max 1 µM
Procedure, shortened: as §1

[9] = compound: CC1=C(C(=CC=C1)Cl)NC(=O)C2=CN=C(S2)NC3=CC(=NC(=N3)C)N4CCN(CC4)CCO [Dasatinib]; details: max 2 µM
Procedure, shortened: as §1

[10] = compound: CC1=CN2[C@@H](C1)C=NC3=CC(=C(C=C3C2=O)OC)OCCCCCOC4=C(C=C5C(=C4)N=C[C@@H]6CC(=CN6C5=O)C)OC [SG3199]; details: max 0.001 µM
Procedure, shortened: as §1

[11] = compound: CCN(CCO)CCCOc1ccc2c(Nc3cc(CC(=O)Nc4cccc(F)c4)[nH]n3)ncnc2c1 [AZD2811]; details: max 1 µM
Procedure, shortened: as §1

[12] = compound: CCc1c2c(nc3ccc(O)cc13)-c1cc3c(c(=O)n1C2)COC(=O)[C@]3(O)CC [SN-38]; details: max 0.3 µM
Procedure, shortened: as §1

[13] = compound: CN(C)CCCOc1ccc(-c2ccc3ncc4c(c3c2)n(C2CCOCC2)c(=O)n4C)cn1 [AZD0156]; details: max 3 µM
Procedure, shortened: as §1

[14] = compound: CN(CC[C@H](CSC1=CC=CC=C1)NC2=C(C=C(C=C2)S(=O)(=O)NC(=O)C3=CC=C(C=C3)N4CCC(CC4)[C@H](C5=CC=CC=C5C6=CC=C(C=C6)Cl)O)S(=O)(=O)C(F)(F)F)CCO [AZD4320]; details: max 1 µM
Procedure, shortened: as §1

[15] = compound: COc1cc(Nc2ncc3c(n2)-c2ccc(Cl)cc2C(c2c(F)cccc2OC)=NC3)ccc1C(=O)O [Alisertib]; details: max 10 µM
Procedure, shortened: as §1

[16] = compound: COc1cc([C@@H]2c3cc4c(cc3[C@@H](O[C@@H]3O[C@@H]5CO[C@@H](C)O[C@H]5[C@H](O)[C@H]3O)[C@H]3COC(=O)[C@H]23)OCO4)cc(OC)c1O [Etoposide]; details: max 10 µM
Procedure, shortened: as §1

[17] = compound: COc1cc2ncnc(Nc3ccc(F)c(Cl)c3)c2cc1OCCCN1CCOCC1 [Gefitinib]; details: max 10 µM
Procedure, shortened: as §1

[18] = compound: COc1cccc(OCCCN)c1-c1cc(Nc2cnc(C#N)cn2)n[nH]1 [Prexasertib]; details: max 1 µM
Procedure, shortened: as §1

[19] = compound: COc1cccc2c1C(=O)c1c(O)c3c(c(O)c1C2=O)C[C@@](O)(C(=O)CO)C[C@@H]3O[C@H]1C[C@H](N)[C@H](O)[C@H](C)O1 [Doxorubicin]; details: max 1 µM
Procedure, shortened: as §1

[20] = compound: COc1nnc2ccc(N3CCC(c4ccc(OCCN5CCN(C)C(=O)[C@H]5C)cc4)CC3)nn12 [AZD5153]; details: max 1 µM
Procedure, shortened: as §1

[21] = compound: CS(=O)(=O)CCNCc1ccc(-c2ccc3ncnc(Nc4ccc(OCc5cccc(F)c5)c(Cl)c4)c3c2)o1 [Lapatinib]; details: max 10 µM
Procedure, shortened: as §1

[22] = compound: C[C@@H](Nc1cc(F)cc(F)c1)c1cc(C(=O)N(C)C)cc2c(=O)cc(N3CCOCC3)oc12 [AZD8186]
Procedure, shortened: as §1

[23] = compound: C[C@@H](Oc1cc(-c2cnn(C3CCNCC3)c2)cnc1N)c1c(Cl)ccc(F)c1Cl [Crizotinib]; details: max 10 µM
Procedure, shortened: as §1

[24] = compound: C[C@@H](c1ccc2nccn2c1)n1nnc2ncc(-c3cnn(C)c3)nc21 [Savolitinib]; details: max 1 µM
Procedure, shortened: as §1

[25] = compound: C[C@@H]1COCCN1C2=NC(=NC(=C2)C3(CC3)[S@](=N)(=O)C)C4=C5C=CNC5=NC=C4 [AZD6738]; details: max 10 µM
Procedure, shortened: as §1

[26] = compound: Cc1c2c(nn1C)CSCc1cc(n(C)n1)CSc1cc(c3ccccc3c1)OCCCc1c(C(=O)O)n(C)c3c-2c(Cl)ccc13 [AZD5991]; details: max 1 µM
Procedure, shortened: as §1

[27] = compound: Cc1cc2ncnn2cc1Nc1ncc2c(n1)n(C1CCOCC1)c(=O)n2C [AZD7648]; details: max 10 µM
Procedure, shortened: as §1

[28] = compound: Cc1nc(-c2cn3c(n2)-c2ccc(-c4cnn(C(C)(C)C(N)=O)c4)cc2OCC3)n(C(C)C)n1 [Taselisib]; details: max 10 µM
Procedure, shortened: as §1

[29] = compound: Cn1cnc2c(F)c(Nc3ccc(Br)cc3Cl)c(C(=O)NOCCO)cc21 [Selumetinib]; details: max 10 µM
Procedure, shortened: as §1

[30] = compound: N#Cc1cnc(Nc2cc(NC[C@H]3CNCCO3)c(C(F)(F)F)cn2)cn1 [SRA737]; details: max 10 µM
Procedure, shortened: as §1

[31] = compound: NC1(c2ccc(-c3nc4ccn5c(=O)[nH]nc5c4cc3-c3ccccc3)cc2)CCC1 [MK-2206]; details: max 10 µM
Procedure, shortened: as §1

[32] = compound: Nc1ccn([C@@H]2O[C@H](CO)[C@@H](O)C2(F)F)c(=O)n1 [Gemcitabine]; details: max 0.3 µM
Procedure, shortened: as §1

[33] = compound: O=C(Nc1ccc2[nH]nc(-c3ccncc3)c2c1)[C@@H]1CCN(CC(=O)N2CCN(c3ccc(-c4ncccn4)cc3)CC2)C1; details: max 5 µM
Procedure, shortened: as §1

[34] = compound: O=C(c1cc(Cc2n[nH]c(=O)c3ccccc23)ccc1F)N1CCN(C(=O)C2CC2)CC1 [Olaparib]; details: max 10 µM
Procedure, shortened: as §1

[35] = compound: O=c1[nH]cc(F)c(=O)[nH]1 [5-Fluorouracil]; details: max 20 µM
Procedure, shortened: as §1

[36] = compound: C1CN(CCC1(C(=O)N[C@@H](CCO)C2=CC=C(C=C2)Cl)N)C3=NC=NC4=C3C=CN4 [Capivasertib]; details: max 10 µM
Procedure, shortened: as §1

Cell Line | IC50, cell viability 72 h [1] [nM] | IC50, cell viability 72 h [2] [nM] | IC50, cell viability 72 h [3] [nM] | IC50, cell viability 72 h [4] [nM] | IC50, cell viability 72 h [5] [nM] | IC50, cell viability 72 h [6] [nM] | IC50, cell viability 72 h [7] [nM] | IC50, cell viability 72 h [8] [nM] | IC50, cell viability 72 h [9] [nM] | IC50, cell viability 72 h [10] [nM] | IC50, cell viability 72 h [11] [nM] | IC50, cell viability 72 h [12] [nM] | IC50, cell viability 72 h [13] [nM] | IC50, cell viability 72 h [14] [nM] | IC50, cell viability 72 h [15] [nM] | IC50, cell viability 72 h [16] [nM] | IC50, cell viability 72 h [17] [nM] | IC50, cell viability 72 h [18] [nM] | IC50, cell viability 72 h [19] [nM] | IC50, cell viability 72 h [20] [nM] | IC50, cell viability 72 h [21] [nM] | IC50, cell viability 72 h ([22]; max 10 µM) [nM] | IC50, cell viability 72 h [23] [nM] | IC50, cell viability 72 h [24] [nM] | IC50, cell viability 72 h [25] [nM] | IC50, cell viability 72 h [26] [nM] | IC50, cell viability 72 h [27] [nM] | IC50, cell viability 72 h [28] [nM] | IC50, cell viability 72 h [29] [nM] | IC50, cell viability 72 h [30] [nM] | IC50, cell viability 72 h [31] [nM] | IC50, cell viability 72 h [32] [nM] | IC50, cell viability 72 h [33] [nM] | IC50, cell viability 72 h [34] [nM] | IC50, cell viability 72 h [35] [nM] | IC50, cell viability 72 h [36] [nM] | IC50, cell viability 72 h ([22]; max 3 µM) [nM]
DSH1 (Bladder Carcinoma) | > 10000 | > 10000 | 1920 | 615 | 146 | > 10000 | > 300 | > 1000 | > 2000 | > 1 | > 1000 | 26.8 | > 3000 | > 1000 | > 10000 | 7620 | 792 | 153 | 306 | 242 | 457 | > 10000 | > 10000 | > 1000 | 4620 | 914 | > 10000 | 2240 | > 10000 | > 10000 | > 10000 | 6.55 | 2060 | > 10000 | > 20000 | – | –
KM-H2 (Hodgkin's Lymphoma) | – | – | 615 | > 1000 | – | > 10000 | > 300 | > 1000 | > 2000 | > 1 | > 1000 | 48.8 | > 3000 | > 1000 | > 10000 | – | > 10000 | 29.1 | 534 | > 1000 | > 10000 | – | > 10000 | > 1000 | 4620 | > 1000 | > 10000 | > 10000 | > 10000 | – | > 10000 | – | – | > 10000 | – | > 10000 | > 3000
